Earlier results as cited in US11179370B2, “Cannabinoid receptor antagonists/inverse agonists useful for treating disease conditions, including metabolic disorders and cancers” (Jenrin Discovery, LLC, priority 2012, dated 2021).

Settings: type 2 diabetes patients without other anti-diabetic medication, after six months of treatment, baseline value 7.9

Cc1c(C(=O)NN2CCCCC2)nn(-c2ccc(Cl)cc2Cl)c1-c1ccc(Cl)cc1 [rimonabant]
HbA1c levels lowered: 0.8%
